From patent US11098071B2, “GPR84 receptor antagonist and use thereof” (SHANGHAI INSTITUTE OF MATERIA MEDICA, CHINESE ACADEMY OF …, priority 2017, dated 2021)

What follows are compounds tested against T1, GPR84 (Homo sapiens, UniProt Q9NQS5) (assay: GPR84 calcium flow model (antagonism of agonist 6-OAU, Fluo-4 fluorescence)). Settings: not given.
T1 construct: expressed in transfected cells; host or cells: HEK293
T1 sequence (Q9NQS5 whole entry): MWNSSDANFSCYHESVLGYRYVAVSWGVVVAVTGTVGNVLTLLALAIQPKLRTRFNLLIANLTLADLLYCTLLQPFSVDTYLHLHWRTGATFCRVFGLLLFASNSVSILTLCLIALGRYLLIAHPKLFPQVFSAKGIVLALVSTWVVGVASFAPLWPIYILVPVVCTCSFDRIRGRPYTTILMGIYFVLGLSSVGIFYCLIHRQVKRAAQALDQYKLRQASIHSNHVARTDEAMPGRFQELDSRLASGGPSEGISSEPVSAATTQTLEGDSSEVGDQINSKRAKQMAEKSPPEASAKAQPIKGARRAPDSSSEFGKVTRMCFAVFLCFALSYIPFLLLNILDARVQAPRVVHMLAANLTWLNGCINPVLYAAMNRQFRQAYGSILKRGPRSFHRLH
Assay type: cell-based
Description: GPR84 antagonistic activity of the compounds of the invention was determined.
The human GPR84 cell line was obtained by transfecting a HEK293 cell line with a plasmid encoding GPR84 and Gα16 proteins. Fluorescent dye Fluo-4AM was purchased from Invitrogen.
Intracellular Ca^2+ ion is a very important second messenger of G protein-coupled receptor signaling pathway. […] Fluo-4 is a Ca^2+ ion-specific fluorescent probe that binds quantitatively to Ca^2+ ions and emits fluorescence. Therefore, the agonistic or antagonistic activity of the compound can be detected in a 96-well or 384-well flat-bottomed microplate using a fluorescence assay.
Detection of receptor inhibitory effect by GPR84 antagonist: After incubated with fluorescent dye Fluo-4, GPR84 cells were incubated with different concentrations of antagonistic compounds for a period of time to occupy the binding site of agonist to GPR84 (antagonistic binding site). A certain concentration of agonist (6-OAU) was added to compete with the antagonist compound for binding sites. […] The half-inhibitory concentration (IC50) of the compound was calculated by using GraphPad PRISM software.
The above ingredients were weighed and dissolved in ultrapure water. pH was adjusted to 7.4 by using hydrochloric acid or NaOH solution. The mixture was filtered and stored at 4° C. for one month.
The buffer was prepared on site.
The preparation of each milliliter of dye is as follows. 1 μL of 2 mM Fluo-4 AM was mixed with 10 μL of 3% Cremophor EL, then diluted with 1 mL of calcium buffer and mixed.
The cells were seeded at a density of 40,000 cells/well into a 96-well cell culture plate, and cultured for 24 hours or more to a cell density of 80 to 90% for experimental detection. The culture medium in the well to be tested was removed and 40 μL/well of freshly prepared dye was added and incubated in a 37-degree incubator for 40 min to 50 min.
The compound was formulated during cell incubation (this step can also be carried out in advance). The compound used as antagonist was diluted with calcium buffer freshly prepared before the experiment to 1.5 times of the final working concentration. The compound as agonist was diluted to 3 times of the final working concentration (if the compound is dissolved in DMSO, the final work concentration of DMSO shall not exceed 1%).
After the incubation step was completed, the dye was discarded, and the residue was washed with calcium buffer once and then replaced with 50 μL of calcium buffer containing different concentrations of antagonist and incubated for another 10 min.
`O=P(O)(Oc1cc2ccccc2c2ccccc12)Oc1cc2ccccc2c2ccccc12` [CLH472] showed an IC50 of 1 to 10 µM.
Compound `O=P(O)(Oc1c2ccccc2cc2ccccc12)Oc1c2ccccc2cc2ccccc12` [CLH472a] has an IC50 of 0.1 to 1 µM.

Same assay, conditions: HEK293 cell line transfected with GPR84 and Gα16; agonist 6-OAU; Fluo-4; read-out: IC50 of the compound detected by the GPR84 calcium flow model
For `C=C1c2ccccc2C=C(OP(=O)(O)OC2=Cc3ccccc3C(=C)c3ccccc32)c2ccccc21` [CLH524a], the IC50 was 0.1 to 1 µM.
In the case of `O=P(O)(OC1=CC2=C(CCCC2)Sc2ccccc21)OC1=CC2=C(CCCC2)Sc2ccccc21` [CLH544], the IC50 is reported as 0.1 to 1 µM.
`COc1cccc2c1Sc1c(OC)cccc1C(OP(=O)(O)OC1=Cc3cccc(OC)c3Sc3c(OC)cccc31)=C2` [XYF656a] gave an IC50 of 0.1 to 1 µM.
`COc1ccc2c(c1)C(OP(=O)(O)OC1=Cc3ccccc3Sc3ccc(OC)cc31)=Cc1ccccc1S2` [CLH596c] was tested, and the IC50 was 0.0001 to 0.1 µM.
Compound `COc1cccc2c1Sc1ccccc1C=C2OP(=O)(O)OC1=Cc2ccccc2Sc2c(O)cccc21` [CLH582] has an IC50 of 0.0001 to 0.1 µM.
`O=P(O)(OC1=Cc2ccccc2S(=O)(=O)c2ccccc21)OC1=Cc2ccccc2S(=O)(=O)c2ccccc21` [CLH600] was tested, and the IC50 was 1 to 10 µM.
Work on `O=P(O)(OC1=Cc2c(F)cccc2Sc2ccccc21)OC1=Cc2c(F)cccc2Sc2ccccc21` [XYF573c] yielded an IC50 of 0.0001 to 0.1 µM.
`COc1cccc2c1Sc1ccccc1C=C2OP(=O)(O)OC1=Cc2cc(C(C)C(=O)O)ccc2Sc2ccccc21` (stereo not drawn) [CLH638] showed an IC50 of 0.0001 to 0.1 µM.
Work on `O=P(O)(CC1=Cc2ccccc2Sc2ccccc21)CC1=Cc2ccccc2Sc2ccccc21` [XYF532] yielded an IC50 of 1 to 10 µM.
Compound `O=P(O)(OC1=Cc2ccccc2Oc2ccccc21)OC1=Cc2ccccc2Oc2ccccc21` [CLH482] has an IC50 of 0.1 to 1 µM.
`CCOC(=O)C(C)c1ccc2c(c1)C=C(OP(=O)(O)OC1=Cc3cc(C(C)C(=O)OCC)ccc3Sc3ccccc31)c1ccccc1S2` (stereo not drawn) [CLH736] gave an IC50 of 1 to 10 µM.
`CC(C)Oc1cccc2c1Sc1ccccc1C=C2OP(=O)(O)OC1=Cc2ccccc2Sc2c(OC(C)C)cccc21` [CLH652] showed an IC50 of 0.1 to 1 µM.
`CCc1cccc2c1Sc1ccccc1C=C2OP(=O)(O)OC1=Cc2ccccc2Sc2c(CC)cccc21` [XYF628c] showed an IC50 of 0.0001 to 0.1 µM.
In the case of `Cc1ccc2c(c1)C(OP(=O)(O)OC1=Cc3ccccc3Sc3ccc(C)cc31)=Cc1ccccc1S2` [XYF564c], the IC50 is reported as 0.0001 to 0.1 µM.
`O=P(O)(OC1=Cc2ccccc2Sc2ccc(F)cc21)OC1=Cc2ccccc2Sc2ccc(F)cc21` [CLH572c] showed an IC50 of 0.1 to 1 µM.
For `O=P(O)(OC1=Cc2cc(Cl)ccc2Sc2ccccc21)OC1=Cc2cc(Cl)ccc2Sc2ccccc21` [XYF604b], the IC50 was 0.0001 to 0.1 µM.
`CC(C(=O)O)c1ccc2c(c1)C=C(OP(=O)(O)OC1=Cc3cc(C(C)C(=O)O)ccc3Sc3ccccc31)c1ccccc1S2` (stereo not drawn) [CLH680] was tested, and the IC50 was 1 to 10 µM.
Work on `O=P(O)(OC1=Cc2ccccc2Sc2cc(F)ccc21)OC1=Cc2ccccc2Sc2cc(F)ccc21` [CLH572b] yielded an IC50 of 0.1 to 1 µM.
`O=P(O)(O/C1=C/c2ccccc2CCc2ccccc21)O/C1=C/c2ccccc2CCc2ccccc21` [XYF528] was tested, and the IC50 was 0.1 to 1 µM.
In the case of `O=P(O)(OC1=Cc2ccccc2C2(OCCO2)c2ccccc21)OC1=Cc2ccccc2C2(OCCO2)c2ccccc21` [CLH616a], the IC50 is reported as 0.1 to 1 µM.
Work on `COc1cccc2c1Sc1ccc(F)cc1C=C2OP(=O)(O)OC1=Cc2cc(F)ccc2Sc2c(OC)cccc21` [XYF632b] yielded an IC50 of 0.0001 to 0.1 µM.
With `O=P(O)(OC1=Cc2cc(F)ccc2Sc2ccccc21)OC1=Cc2cc(F)ccc2Sc2ccccc21` [XYF573b] the IC50 was 0.0001 to 0.1 µM.
`COc1ccc(OC)c2c1Sc1ccccc1C=C2OP(=O)(O)OC1=Cc2ccccc2Sc2c(OC)ccc(OC)c21` [CLH656a] gave an IC50 of 0.1 to 1 µM.
With `COc1cccc2c1Sc1cccc(F)c1C=C2OP(=O)(O)OC1=Cc2c(F)cccc2Sc2c(OC)cccc21` [XYF632c] the IC50 was 0.0001 to 0.1 µM.
`O=P(O)(OC1=Cc2ccccc2Sc2sccc21)OC1=Cc2ccccc2Sc2sccc21` [CLH548] gave an IC50 of 0.0001 to 0.1 µM.
With `CN1c2ccccc2C=C(OP(=O)(O)OC2=Cc3ccccc3N(C)c3ccccc32)c2ccccc21` [CLH508] the IC50 was 0.1 to 1 µM.
`O=P(O)(OC1=Cc2ccccc2Sc2c(F)cccc21)OC1=Cc2ccccc2Sc2c(F)cccc21` [CLH572a] gave an IC50 of 0.1 to 1 µM.
For `CC1c2ccccc2C=C(OP(=O)(O)OC2=Cc3ccccc3C(C)c3ccccc32)c2ccccc21` (stereo not drawn) [CLH528a], the IC50 was 0.1 to 1 µM.
`CCOc1cccc2c1Sc1ccccc1C=C2OP(=O)(O)OC1=Cc2ccccc2Sc2c(OCC)cccc21` [CLH624] gave an IC50 of 0.0001 to 0.1 µM.
`CCc1cccc2c1Sc1cc(F)ccc1C=C2OP(=O)(O)OC1=Cc2ccc(F)cc2Sc2c(CC)cccc21` [XYF628] showed an IC50 of 1 to 10 µM.
With `COc1cccc2c1SC1=C(C=C2OP(=O)(O)OC2=CC3=C(SCC3)Sc3c(OC)cccc32)CCS1` [XYF608] the IC50 was 0.0001 to 0.1 µM.
`O=P(O)(OC1=Cc2ccc(F)cc2Sc2ccccc21)OC1=Cc2ccc(F)cc2Sc2ccccc21` [XYF573] was tested, and the IC50 was 0.1 to 1 µM.
Compound `COc1ccc2c(c1)Sc1c(OC)cccc1C(OP(=O)(O)OC1=Cc3ccc(OC)cc3Sc3c(OC)cccc31)=C2` [XYF656] has an IC50 of 0.0001 to 0.1 µM.
For `COc1cccc2c1Cc1ccccc1C=C2OP(=O)(O)OC1=Cc2ccccc2Cc2c(OC)cccc21` [CLH560], the IC50 was 0.0001 to 0.1 µM.
Compound `O=P(O)(OC1=Cc2cccc(Cl)c2Sc2ccccc21)OC1=Cc2cccc(Cl)c2Sc2ccccc21` [XYF604] has an IC50 of 0.1 to 1 µM.
In the case of `O=P(O)(OC1=Cc2ccccc2SC2=C1CCCC2)OC1=Cc2ccccc2SC2=C1CCCC2` [CLH544a], the IC50 is reported as 0.1 to 1 µM.
`COc1cccc2c1Oc1ccccc1C=C2OP(=O)(O)OC1=Cc2ccccc2Oc2c(OC)cccc21` [XYF564-2a] gave an IC50 of 0.0001 to 0.1 µM.
Compound `COc1ccc2c(c1)Sc1ccccc1C=C2OP(=O)(O)OC1=Cc2ccccc2Sc2cc(OC)ccc21` [CLH596b] has an IC50 of 0.0001 to 0.1 µM.
Work on `O=P(O)(OC1=Cc2ccccc2Sc2ccccc21)OC1=Cc2ccccc2Sc2ccccc21` [CLH514] yielded an IC50 of 0.0001 to 0.1 µM.
In the case of `O=P(O)(OC1=Cc2c(F)cccc2Cc2ccccc21)OC1=Cc2c(F)cccc2Cc2ccccc21` [XYF536c], the IC50 is reported as 0.0001 to 0.1 µM.
`O=P(O)(OC1=Cc2c(F)cccc2Oc2ccccc21)OC1=Cc2c(F)cccc2Oc2ccccc21` [XYF540] gave an IC50 of 0.0001 to 0.1 µM.
Work on `COc1cccc2c1Sc1cc(F)ccc1C=C2OP(=O)(O)OC1=Cc2ccc(F)cc2Sc2c(OC)cccc21` [XYF632] yielded an IC50 of 0.0001 to 0.1 µM.
`COc1cc2c(cc1OC)C(OP(=O)(O)OC1=Cc3ccccc3Sc3cc(OC)c(OC)cc31)=Cc1ccccc1S2` [CLH656] showed an IC50 of 0.0001 to 0.1 µM.
Work on `O=P(O)(OC1=Cc2cccc(F)c2Sc2ccccc21)OC1=Cc2cccc(F)c2Sc2ccccc21` [XYF573a] yielded an IC50 of 0.1 to 1 µM.
In the case of `O=P(O)(OC1=Cc2ccccc2[S+]([O-])c2ccccc21)OC1=Cc2ccccc2S(=O)(=O)c2ccccc21` (stereo not drawn) [CLH584], the IC50 is reported as 1 to 10 µM.
With `O=P(O)(OC1=Cc2ccsc2Sc2sccc21)OC1=Cc2ccsc2Sc2sccc21` [XYF560] the IC50 was 0.1 to 1 µM.
`COc1cccc2c1Sc1c(F)cccc1C=C2OP(=O)(O)OC1=Cc2cccc(F)c2Sc2c(OC)cccc21` [XYF632a] gave an IC50 of 0.0001 to 0.1 µM.
`CCOC(=O)C(C)c1ccc2c(c1)C=C(OP(=O)(O)OC1=Cc3ccccc3Sc3c(OC)cccc31)c1ccccc1S2` (stereo not drawn) [CLH666] showed an IC50 of 0.0001 to 0.1 µM.
With `CCc1cccc2c1Sc1ccc(F)cc1C=C2OP(=O)(O)OC1=Cc2cc(F)ccc2Sc2c(CC)cccc21` [XYF628b] the IC50 was 0.1 to 1 µM.
Compound `CCc1cccc2c1Sc1c(F)cccc1C=C2OP(=O)(O)OC1=Cc2cccc(F)c2Sc2c(CC)cccc21` [XYF628a] has an IC50 of 0.0001 to 0.1 µM.
In the case of `O=P(O)(OC1=Cc2ccccc2Sc2c(O)cccc21)OC1=Cc2ccccc2Sc2c(O)cccc21` [CLH568], the IC50 is reported as 0.0001 to 0.1 µM.
`O=P(O)(O/C1=C/c2ccccc2/C=C\c2ccccc21)O/C1=C/c2ccccc2/C=C\c2ccccc21` [CLH524] was tested, and the IC50 was 0.1 to 1 µM.
